Assay results as given in ChEMBL document CHEMBL1201862, “PubChem BioAssay data set” (2004).
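These data come from cells grown in 96-well plates and exposed to compound for 48 hours at five concentrations. GI50 is the concentration that inhibits growth by half.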 Calls of active or inactive are those of the source. Rule as the data show it: active = GI50 up to about 1.1 µM and inactive = higher.

Tests used:
Test in all cases: inhibition of tumour cell growth, NCI panel, 48 h
RPMI-8226 = tested on: RPMI-8226
BT-549 = tested on: BT-549
A498 = tested on: A498
HOP-62 = tested on: HOP-62
OVCAR-8 = tested on: OVCAR-8
CCRF-CEM = tested on: CCRF-CEM
HCC 2998 = tested on: HCC 2998
PC-3 = tested on: PC-3
OVCAR-4 = tested on: OVCAR-4
MDA-MB-435 = tested on: MDA-MB-435
MDA-N = tested on: MDA-N
M14 = tested on: M14
MDA-MB-231 = tested on: MDA-MB-231
786-0 = tested on: 786-0
Malme-3M = tested on: Malme-3M
T47D = tested on: T47D
DU-145 = tested on: DU-145
HCT-116 = tested on: HCT-116
Hs-578T = tested on: Hs-578T

Measured: GI50

CN(C)CCCn1c(-c2ccc(Br)cc2)cs/c1=N\c1ccccc1
inactive: RPMI-8226 12.6 µM | BT-549 15.4 µM | A498 8.75 µM | HOP-62 12.9 µM | OVCAR-8 15.9 µM | CCRF-CEM 28.8 µM | HCC 2998 5.38 µM | PC-3 11.2 µM | OVCAR-4 16.1 µM | MDA-MB-435 18.7 µM | MDA-N 13.8 µM | M14 12.6 µM | MDA-MB-231 15.1 µM

O=C1c2cc3c(cc2CC12Cc1ccc4c(c1C2=O)CCC4)CCCC3 (stereo not drawn)
inactive: RPMI-8226 > 100 µM | A498 > 100 µM | 786-0 > 100 µM | HOP-62 > 100 µM | OVCAR-8 > 100 µM | CCRF-CEM > 100 µM | HCC 2998 > 100 µM | Malme-3M 60 µM | PC-3 > 100 µM | OVCAR-4 > 100 µM | T47D > 100 µM | MDA-MB-435 76.4 µM | MDA-N > 100 µM | DU-145 > 100 µM | HCT-116 > 100 µM | M14 > 100 µM | MDA-MB-231 > 100 µM | Hs-578T > 100 µM

COC(=O)c1ccc(NCc2cc(OC)ccc2OC)cc1
inactive: RPMI-8226 65.8 µM | BT-549 53.8 µM | A498 26.2 µM | 786-0 > 100 µM | OVCAR-8 > 100 µM | CCRF-CEM 42.1 µM | HCC 2998 67.6 µM | Malme-3M 36.1 µM | PC-3 39 µM | OVCAR-4 > 100 µM | MDA-MB-435 21.8 µM | MDA-N 20.8 µM | DU-145 > 100 µM | HCT-116 45 µM | M14 40.6 µM | MDA-MB-231 46.7 µM | Hs-578T 92 µM

C[N+]1(C)CN(c2ccccc2)C2(CCN(CCCC(=O)c3cccs3)CC2)C1=O
inactive: RPMI-8226 47.3 µM | A498 > 100 µM | 786-0 > 100 µM | HOP-62 33.4 µM | OVCAR-8 > 100 µM | CCRF-CEM 68.4 µM | HCC 2998 65.9 µM | Malme-3M > 100 µM | PC-3 > 100 µM | OVCAR-4 96.8 µM | T47D > 100 µM | MDA-MB-435 > 100 µM | MDA-N > 100 µM | DU-145 > 100 µM | HCT-116 58.9 µM | M14 23.2 µM | MDA-MB-231 72.6 µM | Hs-578T 53.7 µM

O=C1CC2(CCC(O)(c3ccc4ccccc4c3)C(C(=O)c3ccc4ccccc4c3)C2)C(=O)c2ccccc2N1 (stereo not drawn)
inactive: BT-549 > 100 µM | A498 > 100 µM | HOP-62 > 100 µM | OVCAR-8 > 100 µM | CCRF-CEM > 100 µM | HCC 2998 > 100 µM | Malme-3M > 100 µM | PC-3 4.27 µM | T47D 2.13 µM | MDA-MB-435 > 100 µM | DU-145 > 100 µM | HCT-116 > 100 µM | M14 53.1 µM | MDA-MB-231 > 100 µM | Hs-578T > 100 µM

COc1ccc(C2C3CCc4ccccc4C3=NN2S(=O)(=O)c2cccc(C(=O)O)c2OC)cc1 (stereo not drawn)
inactive: RPMI-8226 9.55 µM | BT-549 33.3 µM | 786-0 11.2 µM | HOP-62 21 µM | OVCAR-8 23.6 µM | CCRF-CEM 10.4 µM | Malme-3M 13.3 µM | PC-3 9.02 µM | OVCAR-4 19.4 µM | T47D 4.83 µM | MDA-MB-435 1.79 µM | MDA-N 2.52 µM | DU-145 27.7 µM | HCT-116 10.3 µM | M14 15.8 µM | MDA-MB-231 10.4 µM

N#Cc1c(-c2ccccc2)c(CN2CCCCC2)c(=O)n2c1[nH]c1ccccc12
inactive: BT-549 35 µM | A498 30.4 µM | 786-0 27.9 µM | HOP-62 20.7 µM | OVCAR-8 30.3 µM | CCRF-CEM 25.9 µM | HCC 2998 53.8 µM | Malme-3M 62.2 µM | PC-3 34.9 µM | OVCAR-4 46.3 µM | T47D 40.9 µM | MDA-MB-435 41.4 µM | MDA-N 27.5 µM | HCT-116 16.6 µM | M14 30.1 µM | MDA-MB-231 43.5 µM
